Results taken from the supplement of paper PMC10307832.

Tests used:
Assay in all cases: relative viability (nuclei count vs DMSO), 5 days (fraction); higher = more cells survive
[1] = compound: CCc1c2c(nc3ccc(OC(=O)N4CCC(N5CCCCC5)CC4)cc13)-c1cc3c(c(=O)n1C2)COC(=O)[C@]3(O)CC [Irinotecan] + CC(=O)Nc1cccc(-n2c(=O)n(C3CC3)c(=O)c3c(Nc4ccc(I)cc4F)n(C)c(=O)c(C)c32)c1 [Trametinib] (partner 0.02 µM)
How it was run: (§1)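 For relative viability, nuclei counts in treated wells were divided by those in vehicle wells. Lung cancer cell lines had been pin-tool dosed in 1536-well plates the day after seeding and cultured for 5 days, then fixed and stained in one step (final 0.05% Triton X-100, 1% formaldehyde, 1 ug/ml Hoechst) and imaged at 4×. Doses were one drug alone or a fixed anchor-drug dose plus five library-drug doses (not always all listed) in √10 steps, and values are duplicate-plate medians.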

[2] = compound: CCc1c2c(nc3ccc(OC(=O)N4CCC(N5CCCCC5)CC4)cc13)-c1cc3c(c(=O)n1C2)COC(=O)[C@]3(O)CC [Irinotecan] + Cc1nc(NC(=O)N2CCC[C@H]2C(N)=O)sc1-c1ccnc(C(C)(C)C(F)(F)F)c1 [Alpelisib] (partner 2 µM)
How it was run: as §1

[3] = compound: CCc1c2c(nc3ccc(OC(=O)N4CCC(N5CCCCC5)CC4)cc13)-c1cc3c(c(=O)n1C2)COC(=O)[C@]3(O)CC [Irinotecan] + Cc1cc(Nc2cc(N3CCN(C)CC3)nc(Sc3ccc(NC(=O)C4CC4)cc3)n2)n[nH]1 [Tozasertib] (partner 0.1 µM)
How it was run: as §1

[4] = compound: CCc1c2c(nc3ccc(OC(=O)N4CCC(N5CCCCC5)CC4)cc13)-c1cc3c(c(=O)n1C2)COC(=O)[C@]3(O)CC [Irinotecan] + CC(=O)c1c(C)c2cnc(Nc3ccc(N4CCNCC4)cn3)nc2n(C2CCCC2)c1=O [Palbociclib] (partner 0.5 µM)
How it was run: as §1

## UMC-11
[1]; first compound 0.6325 µM
  relative viability: 0.32
[1]; first compound 2 µM
  relative viability: 0.539
[1]; first compound 6.325 µM
  relative viability: 0.29
[1]; first compound 20 µM
  relative viability: 0.216
[2]; first compound 0.6325 µM
  relative viability: 0.572
[2]; first compound 2 µM
  relative viability: 0.401
[2]; first compound 6.325 µM
  relative viability: 0.214
[2]; first compound 20 µM
  relative viability: 0.229
[3]; first compound 0.6325 µM
  relative viability: 0.194
[3]; first compound 2 µM
  relative viability: 0.25
[3]; first compound 6.325 µM
  relative viability: 0.268
[3]; first compound 20 µM
  relative viability: 0.247
[4]; first compound 0.6325 µM
  relative viability: 0.343
[4]; first compound 2 µM
  relative viability: 0.336
[4]; first compound 6.325 µM
  relative viability: 0.267
[4]; first compound 20 µM
  relative viability: 0.186
